Biological target: Gnp2 (CR_09920W) (Candida albicans, UniProt A0A1D8PU37)
Conditions: 10 mM proline as sole carbon source, YNB, ammonium sulfate, pH 4.5, 37 °C, 6 h

Gnp2 (CR_09920W), sequence (A0A1D8PU37 entry or part of it): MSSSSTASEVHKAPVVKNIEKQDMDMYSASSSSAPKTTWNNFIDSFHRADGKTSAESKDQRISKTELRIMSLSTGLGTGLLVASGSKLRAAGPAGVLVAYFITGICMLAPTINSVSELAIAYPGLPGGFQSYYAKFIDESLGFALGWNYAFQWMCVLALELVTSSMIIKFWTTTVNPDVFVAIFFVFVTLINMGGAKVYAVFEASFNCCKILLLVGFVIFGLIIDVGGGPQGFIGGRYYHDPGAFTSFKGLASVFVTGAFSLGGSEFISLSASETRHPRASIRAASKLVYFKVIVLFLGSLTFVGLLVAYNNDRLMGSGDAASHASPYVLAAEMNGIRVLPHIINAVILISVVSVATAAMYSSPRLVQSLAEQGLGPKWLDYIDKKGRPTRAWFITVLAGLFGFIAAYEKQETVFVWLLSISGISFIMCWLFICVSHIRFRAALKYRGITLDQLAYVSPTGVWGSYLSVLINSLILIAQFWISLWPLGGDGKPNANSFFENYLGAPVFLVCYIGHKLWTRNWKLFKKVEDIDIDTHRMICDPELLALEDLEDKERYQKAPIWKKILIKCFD

O=C(O)[C@@H]1CCCN1 [proline]
LC-MS of extracellular proline, wild type vs gnp2 deletion vs complemented cells: extracellular proline concentration was significantly reduced in the wild type and the GNP2 complemented strain
